Data published in patent US7485259B2, “Organic compound and metal ion synergistic disinfection and purification system and method of manufacture” (priority 2003, dated 2009).

Columns and labels:
MS2 = settings: in 12 hours; cited from earlier work
[1] = after 60 days; cited from earlier work
[2] = tested on: L. pneumophila serogroup 1; settings: ion used alone; cited from earlier work
poliovirus = settings: in 12 hours; cited from earlier work
Klebsiella terrigena = assay: Disinfection of seeded test waters, log reduction of Klebsiella; settings: seeded municipal water
MS2 bacteriophage = assay: Disinfection of seeded test waters, log reduction of MS2 virus; settings: contact up to 24 hours

Row | Compound | log inactivation of MS2 (MS2) [log] | share of initial input detectable in the test chambers [1] [%] | contact time to achieve complete (6 log) inactivation of Legionella [2] [hours] | log inactivation of poliovirus (poliovirus) [log] | log reduction of Klebsiella (Klebsiella terrigena; 60 minute contact time) | log reduction of Klebsiella (Klebsiella terrigena; 240 minutes contact time) | reduction of MS2 virus (MS2 bacteriophage; seeded municipal water) | reduction of MS2 virus (MS2 bacteriophage; seeded untreated natural waters)
1 | [Cu+2] [copper ions] | 4.0 | 75 | 2.5 | 1.3 | less than 3 log | less than 5 log |  | 
2 | silver ions |  | 44 | 24 |  | 5 log |  | No effective reduction | No effective reduction
